According to PMC9515143, “Phosphorylation of Jhd2 by the Ras-cAMP-PKA(Tpk2) pathway regulates histone modifications and autophagy” (Nature Communications, 2022):

Tests used:
COMPASS (Spp1-CBP) = test: In vitro histone methyltransferase (HMT) assay with purified COMPASS; format: biochemical, budding yeast (Saccharomyces cerevisiae); conditions: COMPASS (Spp1-CBP) purified from cells grown in 0.05% glucose
Description: The HMT reactions were carried out using purified COMPASS (Spp1-CBP) and 15 μg recombinant H3 in 50 μl reaction buffer (50 mM Tris pH 8.5, 20 mM KCl, 10 mM MgCl2, 10 mM 2-mercaptoethanol, 100 μM SAM, 250 mM sucrose, protease inhibitor cocktail) at 30 °C for 0–2 hr. Reactions were quenched by adding 5 × SDS loading buffer and boiled at 95°C for 5 min. Protein was separated on a 10–20% SDS-PAGE gel followed by Western blots with the antibodies indicated.
Supplementary Fi g . […] WT (a) and H2B-F LA G cel ls (b) wer e grown in YPD medium until OD600 of 0.7.
Cells were th en tr eat ed with YP medium supplement ed with differen t concentrations of glucos e for 0.5 hr. C ells were h ar vested an d the ex tract ed histones w er e anal yz ed by Western blots with indicat ed ant ibodies. To d et ect H2B monoubiquitination, H2B-F LAG strain w as used and d et ect ed with anti -F LAG ant ibody. Th e upper bands ar e monoubiquitinat ed H2B-F LAG. c E ff e c t of gl ucose on histone modifications in WT and ubp8∆ ubp10∆ mutant. WT and ubp8∆ ubp10∆ mut ant w er e gro wn in YPD medium unti l OD600 of 0.7. Cells wer e th en treated with YP medium supplem ent ed with di fferent con cen tr ations of gl u cos e fo r 0.5 hr. d Gluco se has no effect on the activit y of C O M PA S S . Spp1-TA P cells wer e grown in YPD medium until OD600 of 1.5. Cells were h arv est ed and then […]

PKA subunits = test: Expression of PKA subunits (Tpk1, Tpk2, Tpk3, Bcy1) after glucose, Western blot; format: cell-based, budding yeast (Saccharomyces cerevisiae); conditions: for Tpk2/GAPDH / Tpk3/GAPDH: normalized to Tpk1/GAPDH at same glucose; for Bcy1/GAPDH: normalized to Bcy1/GAPDH at 0.05% glucose
Description: Cells were grown in 5 ml YPD or selective medium until OD600 of 0.7–1.0. Cells were harvested and lysed in alkaline lysis buffer (2 M NaOH, 8% 2-mercaptoethanol). After centrifugation, the protein pellet was resuspended in 150 μl 2×SDS-sample buffer. Protein samples were separated by 8–15% SDS-PAGE and transferred to PVDF membrane. The blots were probed with primary antibodies followed by incubation with horseradish peroxidase-labelled IgG secondary antibodies. The protein bands were visualized using the ECL Chemiluminescence Detection Kit (Bio-Rad, 170–5061) and quantified with Image J software (v.1.8.0).
Supplementary Fi g . 11 Analysis of PKA subunits subcellular localization, expression and Bcy1 dissociation kinetics. […]
For Supplem ent ar y Fi g. 11 b, dat a r ep res ent m ean s ± SEM; n=3 independent ex perim ents. Tw o -sid ed t-t ests were us ed for statistical

H3K79me3 = test: ChIP-qPCR of H3K79me3/H3 (rebuttal); format: cell-based, budding yeast (Saccharomyces cerevisiae); conditions: 0.05% versus 2% glucose

OC[C@H]1OC(O)[C@H](O)[C@@H](O)[C@@H]1O (stereo partly drawn) [glucose]
HMT activity of COMPASS (COMPASS (Spp1-CBP)): did not affect the HMT activity of COMPASS | Tpk2/GAPDH (PKA subunits; 0.05% glucose, replicate 1): 1.627 | Tpk3/GAPDH (PKA subunits; 0.05% glucose, replicate 1): 0.4263 | Tpk2/GAPDH (PKA subunits; 0.05% glucose, replicate 2): 1.616 | Tpk3/GAPDH (PKA subunits; 0.05% glucose, replicate 2): 0.1439 | Tpk2/GAPDH (PKA subunits; 0.05% glucose, replicate 3): 1.728 | Tpk3/GAPDH (PKA subunits; 0.05% glucose, replicate 3): 0.2447 | expression of PKA subunits (PKA subunits; 0.05%, 0.5%, 2% glucose, Western blot): not significantly altered by glucose | Bcy1/GAPDH (PKA subunits; 0.5% glucose, replicate 1): 0.8311 | Bcy1/GAPDH (PKA subunits; 0.5% glucose, replicate 2): 0.7213 | Bcy1/GAPDH (PKA subunits; 0.5% glucose, replicate 3): 1.191 | Tpk2/GAPDH (PKA subunits; 0.5% glucose, replicate 1): 1.363 | Tpk3/GAPDH (PKA subunits; 0.5% glucose, replicate 1): 0.4332 | Tpk2/GAPDH (PKA subunits; 0.5% glucose, replicate 2): 1.712 | Tpk3/GAPDH (PKA subunits; 0.5% glucose, replicate 2): 0.3492 | Tpk2/GAPDH (PKA subunits; 0.5% glucose, replicate 3): 1.416 | Tpk3/GAPDH (PKA subunits; 0.5% glucose, replicate 3): 0.1641 | Bcy1/GAPDH (PKA subunits; 2% glucose, replicate 1): 1.059 | Bcy1/GAPDH (PKA subunits; 2% glucose, replicate 2): 0.8633 | Bcy1/GAPDH (PKA subunits; 2% glucose, replicate 3): 0.977 | Tpk2/GAPDH (PKA subunits; 2% glucose, replicate 1): 1.492 | Tpk3/GAPDH (PKA subunits; 2% glucose, replicate 1): 0.565 | Tpk2/GAPDH (PKA subunits; 2% glucose, replicate 2): 1.634 | Tpk3/GAPDH (PKA subunits; 2% glucose, replicate 2): 0.1809 | Tpk2/GAPDH (PKA subunits; 2% glucose, replicate 3): 1.419 | Tpk3/GAPDH (PKA subunits; 2% glucose, replicate 3): 0.2075 | H3K79me3 occupancy at PAU8, DRS2 and ATG5 (H3K79me3): glucose significantly increased H3K79me3 at H2Bub-dependent genes (PAU8, DRS2)
